Among the data in ChEMBL document CHEMBL1135841, “Use of parallel-synthesis combinatorial libraries for rapid identification of potent FKBP12 inhibitors” (Bioorg Med Chem Lett, 2002) are Ki values, retold here.

Each structure is given as a SMILES string.

For the assay, the target named is Peptidyl-prolyl cis-trans isomerase FKBP1A (Homo sapiens, UniProt P62942). The experiment in a line: Inhibition of peptidyl-prolyl isomerase (PPIase, or rotamase) activity of FK506 binding protein 12.
Chain of Peptidyl-prolyl cis-trans isomerase FKBP1A (P62942 whole entry): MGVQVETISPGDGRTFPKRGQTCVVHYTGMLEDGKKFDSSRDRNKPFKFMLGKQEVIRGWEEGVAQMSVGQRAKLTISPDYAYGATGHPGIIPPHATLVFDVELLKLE
On to `O=C(OCCc1ccccc1)[C@@H]1CCCN1C(=S)NC12C[C@H]3C[C@@H](C1)C[C@@H](C2)C3`, for which the Ki is 47000 nM.

As for `O=C(OCCCCc1ccccc1)[C@@H]1CCCN1C(=O)NC12C[C@H]3C[C@@H](C1)C[C@@H](C2)C3`, affinity was put at a Ki of 470 nM.

On to `Cc1ccc(S(=O)(=O)N2CCCCC2C(=O)OCCCc2ccc(Cl)cc2)cc1` (stereo not given), for which the Ki is 4400 nM. This Ki lies about 9.4-fold higher than the previous one.

For the molecule `O=C(OCCCc1ccc(Br)cc1)C1CCCCN1S(=O)(=O)Cc1ccccc1` (stereo not given), the Ki came out at 2700 nM. Compared with the last molecule, the Ki is about 1.6-fold lower.

Take `C[C@@H](NC(=O)N1CCC[C@H]1C(=O)OCCCc1ccc(Br)cc1)c1ccccc1`: the Ki was > 10000 nM.

`O=C(OCCCc1ccc(F)cc1)[C@@H]1CCCN1/C(S)=N/C12C[C@H]3C[C@@H](C1)C[C@@H](C2)C3` gave a Ki of 850 nM.

Regarding `COc1cc(CCCOC(=O)C2CCCCN2S(=O)(=O)Cc2ccccc2)cc(OC)c1` (stereo not given), the Ki is 120 nM.

On to `C[C@@H](NC(=O)N1CCC[C@H]1C(=O)OCCCc1ccc(F)cc1)c1ccccc1`, for which the inhibition constant Ki came out at 4400 nM. Compared with the last molecule, the Ki is about 37-fold higher.

`O=C(OCCCc1ccc(F)cc1)C1CCCCN1S(=O)(=O)c1ccccc1` (stereo not given) returned an inhibition constant (Ki) of 740 nM.

For `O=C(OCCCc1ccccc1)[C@@H]1CCCN1C(=O)Nc1ccccc1`, the Ki turned out to be 820 nM.

In turn, `O=C(OCc1ccccc1)[C@@H]1CCCN1C(=O)Nc1ccccc1` returned a Ki of 24000 nM.

`O=C(OCCCc1ccc(Cl)cc1)C1CCCCN1S(=O)(=O)Cc1ccccc1` (stereo not given) returned a Ki of 420 nM. This Ki lies about 57-fold lower than the previous one.

`O=C(OCCCc1ccc(F)cc1)C1CCCCN1S(=O)(=O)Cc1ccccc1` (stereo not given) displayed a Ki of 320 nM.

In the case of `COc1ccc(CCCOC(=O)C2CCCCN2S(=O)(=O)Cc2ccccc2)cc1` (stereo not given), the Ki amounted to 92 nM. Compared with the last molecule, the Ki is about 3.5-fold lower.

As to `COc1ccc(CCCOC(=O)C2CCCCN2S(=O)(=O)c2ccccc2)cc1` (stereo not given), the Ki amounted to 260 nM.

As for `O=C(OCCCc1ccccc1)[C@@H]1CCCN1C(=O)NC12C[C@H]3C[C@@H](C1)C[C@@H](C2)C3`, affinity was put at a Ki of 1000 nM.

In the case of `O=C(OCCCc1ccc(Cl)cc1)C1CCCCN1S(=O)(=O)c1ccccc1` (stereo not given), the affinity corresponds to a Ki of 3800 nM.

In turn, `COc1ccc(CCCOC(=O)[C@@H]2CCCN2/C(S)=N/C2CCCCC2)cc1OC` gave a Ki of 86 nM.

With `O=C(OCCCc1ccc(Cl)cc1)[C@@H]1CCCN1C(=O)NC12C[C@H]3C[C@@H](C1)C[C@@H](C2)C3`, the Ki was 2300 nM.

In the case of `COc1ccc(CCCOC(=O)C2CCCCN2S(=O)(=O)Cc2ccccc2)cc1OC` (stereo not given), the affinity corresponds to a Ki of 47 nM.

For `O=C(OCCCCc1ccccc1)[C@@H]1CCCN1C(=S)NC12C[C@H]3C[C@@H](C1)C[C@@H](C2)C3`, the affinity, expressed as Ki, was 7200 nM.

Consider `O=C(OCCCc1ccc(F)cc1)[C@@H]1CCCN1C(=O)NC12C[C@H]3C[C@@H](C1)C[C@@H](C2)C3`, for which the Ki is 1200 nM.

On to `C[C@@H](NC(=O)N1CCC[C@H]1C(=O)OCCCc1ccc(Cl)cc1)c1ccccc1`, for which affinity was put at a Ki of 6000 nM.

Molecule `O=C(OCCCc1ccccc1)[C@@H]1CCCN1C(=S)NC12C[C@H]3C[C@@H](C1)C[C@@H](C2)C3` gave a Ki of 5200 nM.

For the molecule `O=C(OCCCc1ccc(Br)cc1)C1CCCCN1S(=O)(=O)c1ccccc1` (stereo not given), the Ki worked out at 8000 nM.

The molecule `O=C(OCCc1ccccc1)[C@@H]1CCCN1C(=O)NC12C[C@H]3C[C@@H](C1)C[C@@H](C2)C3` registered a Ki of 1300 nM. Against the preceding molecule, the Ki is about 6.2-fold lower.

`COc1cc(CCCOC(=O)C2CCCCN2S(=O)(=O)c2ccccc2)cc(OC)c1` (stereo not given) showed a Ki of 480 nM. This Ki is about 2.7-fold lower than that of the molecule before.

`O=C(OCCCc1ccc(Cl)cc1)[C@@H]1CCCN1C(=S)NC12C[C@H]3C[C@@H](C1)C[C@@H](C2)C3` registered a Ki of 1500 nM.

In the case of `COc1ccc(CCCOC(=O)C2CCCCN2C(=O)NC23CC4CC(CC(C4)C2)C3)c(OC)c1` (stereo not given), the Ki was 12 nM.

Regarding `O=C(OCCCc1ccc(Br)cc1)[C@@H]1CCCN1C(=S)NC12C[C@H]3C[C@@H](C1)C[C@@H](C2)C3`, affinity was put at a Ki of 6300 nM.

`O=C(OCc1ccccc1)[C@@H]1CCCN1C(=O)NC12C[C@H]3C[C@@H](C1)C[C@@H](C2)C3`: the Ki turned out to be 2100 nM. This Ki lies about 3-fold lower than the previous one.

Take `O=C(OCCCc1ccc(Br)cc1)[C@@H]1CCCN1C(=O)NC12C[C@H]3C[C@@H](C1)C[C@@H](C2)C3`: the Ki amounted to 3100 nM.

On to `COc1ccc(CCCOC(=O)C2CCCCN2S(=O)(=O)c2ccccc2)cc1OC` (stereo not given), for which the inhibition constant Ki is 180 nM.

Turning to `COc1ccc(CCCOC(=O)C2CCCCN2S(=O)(=O)c2ccc(C)cc2)cc1` (stereo not given), the Ki came to 220 nM.

For `Cc1ccc(S(=O)(=O)N2CCCCC2C(=O)OCCCc2ccc(F)cc2)cc1` (stereo not given), the Ki came to 1400 nM.

`O=C(OCCc1ccccc1)[C@@H]1CCCN1C(=O)Nc1ccccc1`: the affinity, expressed as Ki, was 1300 nM.

In turn, `COc1cc(CCCOC(=O)C2CCCCN2S(=O)(=O)c2ccc(C)cc2)cc(OC)c1` (stereo not given) showed a Ki of 400 nM.

As to `O=C(OCc1ccccc1)[C@@H]1CCCN1C(=S)NC12C[C@H]3C[C@@H](C1)C[C@@H](C2)C3`, the affinity corresponds to a Ki of 18000 nM. This Ki is about 45-fold higher than that of the molecule before.

The molecule `COc1ccc(CCCOC(=O)[C@@H]2CCCN2S(=O)(=O)Cc2ccccc2)cc1` returned an inhibition constant (Ki) of 22 nM.

Consider `COc1ccc(CCCOC(=O)C2CCCCN2C(=O)NC23CC4CC(CC(C4)C2)C3)cc1OC` (stereo not given), for which the Ki amounted to 32 nM.
